Test results: EPA's CvTdb concentration-time database

Columns and labels:
Rat [1] = assay: concentration in plasma after dosing; conditions: 0.2 h; dosed: 2-Methyltetrahydrofuran; 40 mg/kg; iv; Male; Harlan Sprague Dawley
Rat [2] = assay: concentration in brain after dosing; conditions: 4 h; dosed: 2-Methyltetrahydrofuran; 40 mg/kg; iv; Female; Harlan Sprague Dawley
Rat [3] = assay: concentration in plasma after dosing; conditions: 1.5 h; dosed: 2-Methyltetrahydrofuran; 40 mg/kg; iv; Male; Harlan Sprague Dawley
Rat [4] = assay: concentration in plasma after dosing; conditions: 0.75 h; dosed: 2-Methyltetrahydrofuran; 40 mg/kg; iv; Male; Harlan Sprague Dawley
Rat [5] = assay: concentration in brain after dosing; conditions: 0.2 h; dosed: 2-Methyltetrahydrofuran; 40 mg/kg; iv; Male; Harlan Sprague Dawley
Rat [6] = assay: concentration in brain after dosing; conditions: 0.5 h; dosed: 2-Methyltetrahydrofuran; 40 mg/kg; iv; Male; Harlan Sprague Dawley
Rat [7] = assay: concentration in brain after dosing; conditions: 7 min; dosed: 2-Methyltetrahydrofuran; 40 mg/kg; iv; Male; Harlan Sprague Dawley
Rat [8] = assay: concentration in kidney after dosing; conditions: 6 h; dosed: Fluorotelomer alcohol 8+2; 80 mg/kg; oral; Female; Harlan Sprague Dawley
Rat [9] = assay: concentration in plasma after dosing; conditions: 5 min; dosed: 678-39-7; 12 mg/kg; iv; Male; F344
Rat [10] = assay: concentration in kidney after dosing; conditions: 3 h; dosed: Fluorotelomer alcohol 8+2; 80 mg/kg; oral; Female; Harlan Sprague Dawley
Rat [11] = assay: concentration in liver after dosing; conditions: 6 h; dosed: Fluorotelomer alcohol 8+2; 24 mg/kg; oral; Male; Harlan Sprague Dawley
Rat [12] = assay: concentration in plasma after dosing; conditions: dosed: Fluorotelomer alcohol 8+2, 12 mg/kg, oral, Male, Harlan Sprague Dawley
Rat [13] = assay: concentration in plasma after dosing; conditions: 3 h; dosed: 678-39-7; 12 mg/kg; iv; Male; F344
Rat [14] = assay: concentration in brain after dosing; conditions: 6 h; dosed: Fluorotelomer alcohol 8+2; 80 mg/kg; oral; Female; Harlan Sprague Dawley
Rat [15] = assay: concentration in plasma after dosing; conditions: dosed: Perfluorohexanoic Acid, 80 mg/kg, oral, Male, Harlan Sprague Dawley
Rat [16] = assay: concentration in plasma after dosing; conditions: 0.75 h; dosed: Perfluorohexanoic Acid; 80 mg/kg; oral; Male; Harlan Sprague Dawley
Rat [17] = assay: concentration in plasma after dosing; conditions: 5 min; dosed: Perfluorohexanoic Acid; 40 mg/kg; iv; Male; F344
Rat [18] = assay: concentration in liver after dosing; conditions: 0.5 h; dosed: Perfluorohexanoic Acid; 80 mg/kg; oral; Female; Harlan Sprague Dawley
Rat [19] = assay: concentration in brain after dosing; conditions: 1 h; dosed: Perfluorohexanoic Acid; 80 mg/kg; oral; Male; Harlan Sprague Dawley
Rat [20] = assay: concentration in kidney after dosing; conditions: 6 h; dosed: Perfluorohexanoic Acid; 80 mg/kg; oral; Female; Harlan Sprague Dawley
Rat [21] = assay: concentration in liver after dosing; conditions: 1 h; dosed: Perfluorohexanoic Acid; 80 mg/kg; oral; Female; Harlan Sprague Dawley
Rat [22] = assay: concentration in plasma after dosing; conditions: 0.75 h; dosed: Perfluorohexanoic Acid; 40 mg/kg; iv; Male; F344
Rat [23] = assay: concentration in plasma after dosing; conditions: 2 h; dosed: Gemfibrozil; 4.29 mg/kg; oral; Male; Sprague-Dawley
Rat [24] = assay: concentration in plasma after dosing; conditions: 0.5 h; dosed: Gemfibrozil; 100 mg/kg; oral; Male; Sprague-Dawley
Rat [25] = assay: concentration in plasma after dosing; conditions: 0.5 h; dosed: Gemfibrozil; 4.29 mg/kg; oral; Male; Sprague-Dawley
Rat [26] = assay: concentration in plasma after dosing; conditions: 0.5 h; dosed: Gemfibrozil; 100 mg/kg; oral; Male; Sprague-Dawley; remark: listed apart in the source
Rat [27] = assay: concentration in plasma after dosing; conditions: 2 h; dosed: Gemfibrozil; 100 mg/kg; oral; Male; Sprague-Dawley
Rat [28] = assay: concentration in plasma after dosing; conditions: 4 h; dosed: Gemfibrozil; 100 mg/kg; oral; Male; Sprague-Dawley
Rat [29] = assay: concentration in kidney after dosing; conditions: 24 h; dosed: Perfluorooctane Sulfonate; 2 mg/kg; oral; Female; Harlan Sprague Dawley
Rat [30] = assay: concentration in kidney after dosing; conditions: 3360 h; dosed: Perfluorooctane Sulfonate; 20 mg/kg; oral; Male; Harlan Sprague Dawley
Rat [31] = assay: concentration in liver after dosing; conditions: 24 h; dosed: Perfluorooctane Sulfonate; 2 mg/kg; oral; Female; Harlan Sprague Dawley
Rat [32] = assay: concentration in liver after dosing; conditions: 24 h; dosed: Perfluorooctane Sulfonate; 2 mg/kg; oral; Female; Harlan Sprague Dawley; remark: listed apart in the source
Rat [33] = assay: concentration in kidney after dosing; conditions: 24 h; dosed: Perfluorooctane Sulfonate; 20 mg/kg; oral; Male; Harlan Sprague Dawley
Rat [34] = assay: concentration in liver after dosing; conditions: 864 h; dosed: Perfluorooctane Sulfonate; 20 mg/kg; oral; Male; Harlan Sprague Dawley
Rat [35] = assay: concentration in brain after dosing; conditions: 1848 h; dosed: Perfluorooctane Sulfonate; 20 mg/kg; oral; Female; F344
Rat [36] = assay: concentration in plasma after dosing; conditions: 864 h; dosed: Perfluorooctane Sulfonate; 2 mg/kg; oral; Female; Harlan Sprague Dawley
Rat [37] = assay: concentration in plasma after dosing; conditions: dosed: Perfluorooctane Sulfonate, 2 mg/kg, iv, Male, F344
Rat [38] = assay: concentration in plasma after dosing; conditions: 864 h; dosed: Perfluorooctane Sulfonate; 2 mg/kg; oral; Female; Harlan Sprague Dawley; remark: listed apart in the source
Rat [39] = assay: concentration in kidney after dosing; conditions: 864 h; dosed: Perfluorooctane Sulfonate; 20 mg/kg; oral; Male; Harlan Sprague Dawley
Rat [40] = assay: concentration in liver after dosing; conditions: 6 h; dosed: Perfluorooctane Sulfonate; 20 mg/kg; oral; Male; Harlan Sprague Dawley
Rat [41] = assay: concentration in kidney after dosing; conditions: 3360 h; dosed: Perfluorooctane Sulfonate; 20 mg/kg; oral; Male; Harlan Sprague Dawley; remark: listed apart in the source

CC1CCCO1 (centres undefined) [2-Methyltetrahydrofuran]
Conditions	concentration in brain [ng/mL]	concentration in plasma [ng/mL]
Rat [1]	–	35700
Rat [2]	111	–
Rat [3]	–	14500
Rat [4]	–	23700
Rat [5]	30800	–
Rat [6]	15200	–
Rat [7]	29000	–

O=C(O)CCC(F)(F)C(F)(F)C(F)(F)C(F)(F)C(F)(F)C(F)(F)C(F)(F)F [Fluorotelomer acid 7+3]
Conditions	concentration in brain [ng/g]	concentration in kidney [ng/g]	concentration in liver [ng/g]	concentration in plasma [ng/mL]
Rat [8]	–	3640	–	–
Rat [9]	–	–	–	13.1
Rat [10]	–	5620	–	–
Rat [11]	–	–	1500	–
Rat [13]	–	–	–	735
Rat [14]	1470	–	–	–

Rat [12]
Conditions	concentration in plasma [ng/mL]
0.25 h	41.6
6 h	841

O=C(O)C(F)(F)C(F)(F)C(F)(F)C(F)(F)C(F)(F)F [Perfluorohexanoic Acid]
Rat [15]
Conditions	concentration in plasma [ng/mL]
0.25 h	156000
24 h	416

Conditions	concentration in brain [ng/g]	concentration in kidney [ng/g]	concentration in liver [ng/g]	concentration in plasma [ng/mL]
Rat [16]	–	–	–	129000
Rat [17]	–	–	–	18600
Rat [18]	–	–	23800	–
Rat [19]	2670	–	–	–
Rat [20]	–	2180	–	–
Rat [21]	–	–	41600	–
Rat [22]	–	–	–	15200

Cc1ccc(C)c(OCCCC(C)(C)C(=O)O)c1 [Gemfibrozil]
Conditions	concentration in plasma [ng/mL]
Rat [23]	234
Rat [24]	40400
Rat [25]	424
Rat [26]	33900
Rat [27]	10700
Rat [28]	6150

O=S(=O)([O-])C(F)(F)C(F)(F)C(F)(F)C(F)(F)C(F)(F)C(F)(F)C(F)(F)C(F)(F)F [Perfluorooctane Sulfonate]
Conditions	concentration in brain [ng/g]	concentration in kidney [ng/g]	concentration in liver [ng/g]	concentration in plasma [ng/mL]
Rat [29]	–	5720	–	–
Rat [30]	–	13900	–	–
Rat [31]	–	–	30300	–
Rat [32]	–	–	29400	–
Rat [33]	–	67900	–	–
Rat [34]	–	–	97500	–
Rat [35]	1910	–	–	–
Rat [36]	–	–	–	1490
Rat [38]	–	–	–	1480
Rat [39]	–	17800	–	–
Rat [40]	–	–	204000	–
Rat [41]	–	4360	–	–

Rat [37]
Conditions	concentration in plasma [ng/mL]
12 h	4880
864 h	2120
